This passage reports GI50 and TGI results from PubChem BioAssay (NCI).

Some test systems named below: A498 renal; DU-145 prostate; HS 578T breast; K-562 leukemia; LOX IMVI melanoma; OVCAR-4 ovarian; SK-MEL-28 melanoma; SW-620 colon.
What all share (assay): DTP human tumour cell line panel, 48 h

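Method: 48-hour compound exposure of cells in 96-well plates, five concentrations, linear interpolation of endpoints. Here, GI50 denotes the concentration required for 50% inhibition of growth. TGI: concentration producing complete growth inhibition.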

A word on the GI50: it is the concentration that inhibits growth by half. The TGI is the concentration at which net growth stops. On to `CCCCCCCCCCCCOC1C(C(COC2OC(C(O)CO)C3OC(C)(C)OC23)OC(=O)Nc2ccccc2)OC2OC(C)(C)OC21` (stereo unspecified), for which the GI50 with A498 renal is 12.4 µM; with DU-145 prostate, 10 µM; in the assay with HS 578T breast, 6.13 µM; in the assay with K-562 leukemia, 3.44 µM; in the assay on LOX IMVI melanoma, 7.82 µM; in the assay with OVCAR-4 ovarian, 5.85 µM. Besides, the GI50 in the assay on SK-MEL-28 melanoma was 7.24 µM; in the assay with SW-620 colon, 9.21 µM. Besides, the total growth inhibition concentration (TGI) in the assay with A498 renal turned out to be 25.1 µM; with DU-145 prostate, 22.8 µM; in the assay with HS 578T breast, 18.6 µM; in the assay on K-562 leukemia, 16.9 µM; in the assay with LOX IMVI melanoma, 20.9 µM; with OVCAR-4 ovarian, 17.8 µM. The TGI in the assay with SK-MEL-28 melanoma is 19.3 µM; in the assay with SW-620 colon, 27.2 µM.
As to `O=C(O)CSc1cc(NS(=O)(=O)c2ccc(Br)cc2)c2ccccc2c1O`, the GI50 was 18.3 µM with A498 renal; 16.5 µM in the assay with DU-145 prostate; 7.65 µM with HS 578T breast; 19.7 µM in the assay on K-562 leukemia; 3.14 µM with LOX IMVI melanoma; 1.62 µM in the assay with OVCAR-4 ovarian. The GI50 in the assay on SK-MEL-28 melanoma is 14.5 µM; in the assay with SW-620 colon, 14.4 µM. For the same compound, the concentration for total growth inhibition (TGI) in the assay with A498 renal is 34.7 µM; with DU-145 prostate it was 30.1 µM; in the assay with HS 578T breast, 80.1 µM; with K-562 leukemia, more than 59.6 µM; in the assay on LOX IMVI melanoma it was 12.1 µM; with OVCAR-4 ovarian, 3.05 µM. Further, the TGI with SK-MEL-28 melanoma came to 29 µM; in the assay with SW-620 colon, 33.7 µM.
For `COc1cc2c(cc1OCCN1CCN(CCN3C(=O)c4cccc5cccc(c45)C3=O)CC1)N=C[C@@H]1CCCN1C2=O`, the GI50 was 20.5 µM in the assay on A498 renal; 16.9 µM with DU-145 prostate; 24.9 µM with HS 578T breast; 25.2 µM in the assay with K-562 leukemia; 32.7 µM with LOX IMVI melanoma; 24.6 µM in the assay on OVCAR-4 ovarian. Besides, the GI50 is 32.5 µM in the assay with SK-MEL-28 melanoma and 19.6 µM in the assay on SW-620 colon. Further, the total growth inhibition concentration (TGI) in the assay with A498 renal is 40.4 µM; in the assay with DU-145 prostate, 30.6 µM; with HS 578T breast it was 54.4 µM; in the assay on K-562 leukemia it was 57.7 µM; in the assay with LOX IMVI melanoma, more than 100 µM; in the assay on OVCAR-4 ovarian it was 47.3 µM. For the same compound, the concentration for total growth inhibition (TGI) in the assay with SK-MEL-28 melanoma was found to be 77.7 µM; in the assay with SW-620 colon it was 40 µM.
For `O=S(=O)(O)C(c1ccccc1)C(O)c1ccccc1` (stereo unspecified), the TGI in the assay on A498 renal, in the assay with DU-145 prostate, with HS 578T breast, with K-562 leukemia, with LOX IMVI melanoma and in the assay with OVCAR-4 ovarian was more than 100 µM in each case. For the same compound, the TGI in the assay on SK-MEL-28 melanoma and with SW-620 colon was more than 100 µM each time.
`O=c1c(Oc2ccc(F)cc2F)cc2cnc(NC3CCOCC3)nc2n1C1CC1`: the GI50 was 2.72 µM in the assay with A498 renal; more than 25 µM with DU-145 prostate; more than 16.9 µM in the assay on HS 578T breast; more than 25 µM in the assay on K-562 leukemia; more than 25 µM with LOX IMVI melanoma; more than 25 µM with OVCAR-4 ovarian. For the same compound, the GI50 in the assay on SK-MEL-28 melanoma and in the assay with SW-620 colon was more than 25 µM throughout. Also, the TGI with A498 renal, in the assay with DU-145 prostate, in the assay on HS 578T breast, with K-562 leukemia, in the assay on LOX IMVI melanoma and in the assay on OVCAR-4 ovarian was more than 25 µM throughout. Further, the TGI in the assay on SK-MEL-28 melanoma and in the assay on SW-620 colon was more than 25 µM each time.
For the compound `COc1cc2c3c(n(CCCN)c(=O)c2cc1OC)-c1ccc(N)cc1C3=O`, the GI50 with A498 renal was 1.93 µM; in the assay with DU-145 prostate, 1.64 µM; with HS 578T breast, 2.02 µM; in the assay with K-562 leukemia it was 0.155 µM; in the assay on LOX IMVI melanoma it was 0.333 µM; in the assay with OVCAR-4 ovarian it was 1.57 µM. Also, the GI50 in the assay on SK-MEL-28 melanoma is 2.16 µM; in the assay with SW-620 colon it was 0.607 µM. Further, the TGI in the assay on A498 renal was found to be 9.78 µM; in the assay on DU-145 prostate, 9.03 µM; in the assay with HS 578T breast, 12.5 µM; with K-562 leukemia it was 12 µM; in the assay with LOX IMVI melanoma, 2.16 µM; with OVCAR-4 ovarian, 11.6 µM. The total growth inhibition concentration (TGI) in the assay on SK-MEL-28 melanoma was found to be 14.7 µM; in the assay with SW-620 colon, 11.7 µM.
Take `OCc1ccc(N2CCc3ccc(F)cc3C2)cc1Cl`: the GI50 in the assay with A498 renal is 0.0173 µM; with DU-145 prostate it was 7.06 µM; in the assay on HS 578T breast, 15.8 µM; with K-562 leukemia, 0.159 µM; with LOX IMVI melanoma, 3.73 µM; in the assay with OVCAR-4 ovarian, 0.0799 µM. Moreover, the GI50 is 13.1 µM in the assay on SK-MEL-28 melanoma and 0.18 µM in the assay with SW-620 colon. For the same compound, the total growth inhibition concentration (TGI) was found to be 0.0751 µM in the assay on A498 renal; 21.2 µM with DU-145 prostate; 48.4 µM in the assay on HS 578T breast; 19.6 µM in the assay on K-562 leukemia; 12.3 µM in the assay on LOX IMVI melanoma; 0.772 µM in the assay with OVCAR-4 ovarian. The TGI in the assay with SK-MEL-28 melanoma was 26.1 µM; in the assay on SW-620 colon it was 11.2 µM.
With `N#CC1=C(N)Oc2c(ccc3ccccc23)C1c1cc2ccccc2n2nnnc12` (stereo unspecified), the GI50 in the assay with A498 renal was 0.783 µM; in the assay with DU-145 prostate, 2.77 µM; with HS 578T breast, 1.51 µM; with K-562 leukemia, 0.365 µM; in the assay with LOX IMVI melanoma it was 0.966 µM; in the assay with OVCAR-4 ovarian, 18.7 µM. Moreover, the results for the GI50 in the assay on SK-MEL-28 melanoma and in the assay on SW-620 colon were 4.04 µM and 0.467 µM, respectively. For the same compound, the concentration for total growth inhibition (TGI) in the assay with A498 renal is more than 100 µM; in the assay with DU-145 prostate it was more than 100 µM; with HS 578T breast, 49.3 µM; in the assay on K-562 leukemia it was more than 100 µM; with LOX IMVI melanoma, more than 100 µM; with OVCAR-4 ovarian, more than 100 µM. The total growth inhibition concentration (TGI) in the assay on SK-MEL-28 melanoma and in the assay on SW-620 colon was more than 100 µM each time.
With `OC[C@H]1C[C@](O)(c2ccc(F)cc2)[C@@H](c2ccc(F)cc2)O1`, the GI50 with A498 renal was more than 100 µM; in the assay on DU-145 prostate, more than 100 µM; with HS 578T breast, 44.2 µM; with K-562 leukemia, more than 100 µM; in the assay with LOX IMVI melanoma, more than 100 µM; with OVCAR-4 ovarian, more than 100 µM. The GI50 with SK-MEL-28 melanoma and in the assay with SW-620 colon was more than 100 µM in each case. Further, the TGI with A498 renal, in the assay with DU-145 prostate, with HS 578T breast, in the assay with K-562 leukemia, in the assay with LOX IMVI melanoma and with OVCAR-4 ovarian was more than 100 µM in each case. Further, the TGI in the assay on SK-MEL-28 melanoma and in the assay on SW-620 colon was more than 100 µM each time.
